Reference: patent US20050182039A1, “Use of Loteprednol etabonate for the treatment of dry eye” (Bausch & Lomb Incorporated, priority 2004, published 2005)

Test system: patients with KCS with inflammation
Experiment: four-week topical use of a Loteprednol etabonate ophthalmic formulation in patients with KCS with inflammation
Type: in vivo, human
Description: U.S. Patent Application. Publication No. 20030008853 discloses 22,29-epoxy-3,4,6,7,29-pentahydroxy-,(3α,4β,5α,6α,7-β,14β,22S)-stigmastan-15-one as useful for treating dry eye disorders and other disorders requiring the wetting of the eye. This publication further notes that corticosteroids, such as prednisolone, dexamethasone, fluoromethalone, hydrocortisone, loteprednol, triamcinolone, etc., cannot be used for prolonged therapy in dry eye patients without causing side effects. This publication further notes that steroid-related complications including increased intraocular pressure and cataract formation have been observed in dry eye patients treated with corticosteroids after several months of therapy.

Structure (SMILES): CCOC(=O)O[C@]1(C(=O)OCCl)CC[C@H]2[C@@H]3CCC4=CC(=O)C=C[C@]4(C)[C@H]3[C@@H](O)C[C@@]21C [Loteprednol etabonate, (11β,17α),-17-[(Ethoxycarbonyl)oxy]-11-hydroxy-3-oxoandrosta-1,4-diene-17-carboxylic acid chloromethyl ester]
- treatment effect in subsets of patients with a moderate to severe inflammatory component (more severe KCS) (patient subsets with moderate to severe inflammatory component): differential treatment effect, which was in some cases significant
- efficacy in the management of patients with KCS with inflammation (used for four weeks): efficacious
- tolerability in the management of patients with KCS with inflammation (used for four weeks): well tolerated
